Laboratory results taken from patent US20110257233A1, “BENZOISOTHIAZOLONES AS INHIBITORS OF PHOSPHOMANNOSE ISOMERASE” (Sanford-Burnham Medical Research Institute, priority 2010, published 2011).

System: Pseudomonas aeruginosa (ATCC 27853)
Test: Microbial in vitro assay 614030
Assay type: cell-based
Details: reference standard run with the assay
Procedure: The methods employed in this study were adapted from the scientific literature to maximize reliability and reproducibility. The reference standards were run as an integral part of each assay to ensure the validity of the results obtained. The assays were performed under conditions described below. The literature reference(s) for each assay are also provided as follows: Enza Di Modugno, Isabelle […]. […] Antimicrobial Agents Chemotherapy 3: 40-48; […]., Pursiano, […]. and Price, K. E. (1973) In Vitro Activity of the Tribactam GV 104326 against Gram-Positive, Gram-Negative, and Anaerobic Bacteria. Antimicrobial Agents and Chemotherapy, 38: 2362-2368, 1994; Enza Di Modugno, Isabelle […]. […] Antimicrobial Agents Chemotherapy 3: 40-48; and […]., Pursiano, […]. and Price, K. E. (1973) In vitro antibacterial activity of SM-7338, a carbapenem antibiotic with stability to dehydropeptidase I Antimicrobial Agents, Chemotherapy, 33 #2:215-222, 1989.

Substance: Gentamicin
- CONCURRENT (reference compound data): 0.3 µg/mL
